Test results: ChEMBL document CHEMBL1201862, “PubChem BioAssay data set” (2004)
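Five compound concentrations were applied to cells in 96-well plates for 48 hours; endpoints were derived by simple linear interpolation of the resulting dose-response curve. Abbreviation: GI50, concentration required for 50% inhibition of growth.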 Active and inactive are the calls of the source. Cut-off read from the data, not from the text of the source: active = GI50 up to about 1.1 µM and inactive = higher.

Tests used:
Assay in all cases: NCI tumour cell line growth inhibition, 48 h
786-0 = test system: 786-0
A498 = test system: A498
A549 = test system: A549
ACHN = test system: ACHN
BT-549 = test system: BT-549
CAKI-1 = test system: CAKI-1
COLO 205 = test system: COLO 205
DU-145 = test system: DU-145
EKVX = test system: EKVX
HCC 2998 = test system: HCC 2998
HCT-116 = test system: HCT-116
HCT-15 = test system: HCT-15
HL-60 = test system: HL-60
HOP-62 = test system: HOP-62
HOP-92 = test system: HOP-92
HT-29 = test system: HT-29
Hs-578T = test system: Hs-578T
IGROV-1 = test system: IGROV-1
K562 = test system: K562
KM12 = test system: KM12
LOX IMVI = test system: LOX IMVI
M14 = test system: M14
MCF7 = test system: MCF7
MDA-MB-231 = test system: MDA-MB-231
MDA-MB-435 = test system: MDA-MB-435
MDA-N = test system: MDA-N
MOLT-4 = test system: MOLT-4
Malme-3M = test system: Malme-3M
NCI-H226 = test system: NCI-H226
NCI-H23 = test system: NCI-H23
NCI-H460 = test system: NCI-H460
NCI-H522 = test system: NCI-H522
NCI/ADR-RES = test system: NCI/ADR-RES
OVCAR-3 = test system: OVCAR-3
OVCAR-4 = test system: OVCAR-4
OVCAR-5 = test system: OVCAR-5
OVCAR-8 = test system: OVCAR-8
PC-3 = test system: PC-3
RPMI-8226 = test system: RPMI-8226
RXF 393 = test system: RXF 393
SF-268 = test system: SF-268
SF-295 = test system: SF-295
SF-539 = test system: SF-539
SK-MEL-28 = test system: SK-MEL-28
SK-MEL-2 = test system: SK-MEL-2
SK-MEL-5 = test system: SK-MEL-5
SK-OV-3 = test system: SK-OV-3
SN12C = test system: SN12C
SNB-19 = test system: SNB-19
SNB-75 = test system: SNB-75
SR = test system: SR
SW-620 = test system: SW-620
T47D = test system: T47D
TK-10 = test system: TK-10
U-251 = test system: U-251
UACC-257 = test system: UACC-257
UACC-62 = test system: UACC-62
UO-31 = test system: UO-31
CCRF-CEM = test system: CCRF-CEM

Measured: GI50

CC1=NN(c2cccc(S(=O)(=O)O)c2)C2(C1)SCC(=O)N2c1nc2ccccc2s1 (stereo not drawn)
inactive: 786-0 > 100 µM | A498 > 100 µM | A549 > 100 µM | ACHN > 100 µM | BT-549 > 100 µM | CAKI-1 > 100 µM | COLO 205 > 100 µM | DU-145 > 100 µM | EKVX > 100 µM | HCC 2998 > 100 µM | HCT-116 > 100 µM | HL-60 91.2 µM | HOP-62 > 100 µM | HOP-92 > 100 µM | HT-29 > 100 µM | Hs-578T > 100 µM | IGROV-1 > 100 µM | K562 > 100 µM | KM12 > 100 µM | LOX IMVI 88.9 µM | M14 > 100 µM | MCF7 > 100 µM | MDA-MB-231 > 100 µM | MDA-MB-435 > 100 µM | MDA-N > 100 µM | MOLT-4 > 100 µM | Malme-3M > 100 µM | NCI-H226 > 100 µM | NCI-H23 > 100 µM | NCI-H460 > 100 µM | NCI-H522 > 100 µM | NCI/ADR-RES > 100 µM | OVCAR-3 83.2 µM | OVCAR-4 > 100 µM | OVCAR-5 > 100 µM | OVCAR-8 > 100 µM | PC-3 > 100 µM | RPMI-8226 > 100 µM | RXF 393 > 100 µM | SF-268 > 100 µM | SF-295 > 100 µM | SF-539 17.6 µM | SK-MEL-28 > 100 µM | SK-MEL-2 > 100 µM | SK-MEL-5 > 100 µM | SK-OV-3 > 100 µM | SN12C > 100 µM | SNB-19 > 100 µM | SNB-75 > 100 µM | SR 35.7 µM | SW-620 9.1 µM | T47D > 100 µM | TK-10 > 100 µM | U-251 > 100 µM | UACC-257 > 100 µM | UACC-62 > 100 µM | UO-31 > 100 µM
> 100 µM: HCT-15

CN(C)c1ccc(/C=C/c2ccnc3ccccc23)cc1
61.1 µM: HCT-15
inactive: 786-0 89.7 µM | A498 > 100 µM | A549 61.4 µM | ACHN 40.3 µM | BT-549 18.2 µM | CAKI-1 > 100 µM | CCRF-CEM 49.5 µM | COLO 205 28.8 µM | DU-145 47.9 µM | EKVX 49 µM | HCC 2998 > 100 µM | HCT-116 39.8 µM | HL-60 31.6 µM | HOP-62 > 100 µM | HOP-92 93.3 µM | HT-29 25.3 µM | Hs-578T 14.5 µM | IGROV-1 > 100 µM | K562 33.5 µM | KM12 55.8 µM | LOX IMVI 53.3 µM | M14 65.8 µM | MCF7 90.2 µM | MDA-MB-231 23.3 µM | MDA-MB-435 23.1 µM | MDA-N 17.7 µM | Malme-3M 53.2 µM | NCI-H23 39.4 µM | NCI-H460 47.9 µM | NCI/ADR-RES 64.3 µM | OVCAR-3 > 100 µM | OVCAR-4 55.6 µM | OVCAR-5 > 100 µM | PC-3 > 100 µM | RPMI-8226 51.1 µM | RXF 393 54.3 µM | SF-268 > 100 µM | SF-295 54.7 µM | SF-539 > 100 µM | SK-MEL-28 72.6 µM | SK-MEL-2 58.2 µM | SK-MEL-5 75.9 µM | SK-OV-3 54.5 µM | SN12C 64.9 µM | SNB-19 > 100 µM | SNB-75 28.8 µM | SR 30.5 µM | SW-620 39.4 µM | T47D 96.8 µM | TK-10 65.8 µM | U-251 84.7 µM | UACC-257 > 100 µM | UACC-62 43.1 µM | UO-31 43.9 µM

COC(=O)[C@@H]1CS(=O)(=O)C(C(C)C)N1C(C)=O (stereo partly drawn)
> 100 µM: HCT-15
inactive: 786-0 > 100 µM | A498 > 100 µM | A549 > 100 µM | ACHN > 100 µM | BT-549 > 100 µM | CAKI-1 > 100 µM | COLO 205 > 100 µM | DU-145 > 100 µM | EKVX > 100 µM | HCC 2998 > 100 µM | HCT-116 > 100 µM | HL-60 7.19 µM | HOP-62 > 100 µM | HOP-92 > 100 µM | HT-29 > 100 µM | Hs-578T > 100 µM | IGROV-1 > 100 µM | K562 > 100 µM | KM12 > 100 µM | LOX IMVI > 100 µM | M14 > 100 µM | MCF7 > 100 µM | MDA-MB-231 > 100 µM | MDA-MB-435 > 100 µM | MDA-N > 100 µM | Malme-3M > 100 µM | NCI-H226 > 100 µM | NCI-H23 > 100 µM | NCI-H460 > 100 µM | NCI-H522 > 100 µM | NCI/ADR-RES > 100 µM | OVCAR-3 > 100 µM | OVCAR-4 > 100 µM | OVCAR-5 > 100 µM | OVCAR-8 > 100 µM | PC-3 > 100 µM | RPMI-8226 > 100 µM | RXF 393 > 100 µM | SF-268 > 100 µM | SF-295 > 100 µM | SF-539 > 100 µM | SK-MEL-28 > 100 µM | SK-MEL-2 > 100 µM | SK-MEL-5 > 100 µM | SK-OV-3 > 100 µM | SN12C > 100 µM | SNB-19 > 100 µM | SNB-75 > 100 µM | SR > 100 µM | SW-620 > 100 µM | T47D > 100 µM | TK-10 > 100 µM | U-251 > 100 µM | UACC-257 > 100 µM | UACC-62 > 100 µM | UO-31 > 100 µM

OC1C=C2C3CN(Cc4cc5c(cc43)OCO5)[C@H]2C[C@@H]1O (stereo partly drawn)
4.33 µM: HCT-15
active: SNB-75 0.794 µM
inactive: 786-0 4.12 µM | A498 6.87 µM | A549 3.74 µM | ACHN 2.65 µM | BT-549 2.13 µM | CAKI-1 3.44 µM | CCRF-CEM 2.34 µM | COLO 205 3.78 µM | DU-145 2.64 µM | EKVX 4.36 µM | HCT-116 3.3 µM | HL-60 2.61 µM | HOP-62 6.84 µM | HOP-92 5.31 µM | HT-29 3.69 µM | Hs-578T 26.3 µM | IGROV-1 4.02 µM | K562 4.31 µM | KM12 3.86 µM | LOX IMVI 4.06 µM | M14 4.22 µM | MCF7 2.96 µM | MDA-MB-231 18.1 µM | MDA-MB-435 3.94 µM | MDA-N 3.89 µM | MOLT-4 4.29 µM | Malme-3M 7.23 µM | NCI-H226 > 100 µM | NCI-H23 5.96 µM | NCI-H460 2.28 µM | NCI-H522 7.28 µM | NCI/ADR-RES 15.7 µM | OVCAR-3 7.13 µM | OVCAR-4 3.07 µM | OVCAR-5 8.39 µM | OVCAR-8 5.04 µM | PC-3 2.19 µM | RPMI-8226 6.93 µM | RXF 393 2.54 µM | SF-268 7.28 µM | SF-295 7.38 µM | SF-539 16.9 µM | SK-MEL-28 11.5 µM | SK-MEL-2 3.2 µM | SK-MEL-5 3.32 µM | SK-OV-3 3.82 µM | SN12C 5.12 µM | SNB-19 4.62 µM | SR 2.94 µM | SW-620 5.57 µM | T47D 1.16 µM | TK-10 4.13 µM | U-251 4.86 µM | UACC-257 2.07 µM | UACC-62 10.6 µM | UO-31 6.3 µM
